Where two headings read alike, the source gives them in different places.
How the values were obtained:
PAI-1 [1] = conditions: in vivo model in mouse (Larsson, Alwis et al. 2016); cited from earlier work
PAI-1 [2] = conditions: in vivo model in pig (Svennerholm et al. 2014); cited from earlier work
PAI-1 [3] = assay: Intermediate endpoint study in patients with TIA/minor stroke: plasma PAI-1 levels; format: in vivo, human; conditions: 20 patients with TIA/minor stroke; 400 mg valproic acid enteric-coated tablet with delayed absorption, once daily at 11 pm for 2 weeks
Description: (§1) An intermediate endpoint proof-of-concept study is performed in patients with TIA/minor stroke investigated before and after treatment with Valproic acid. Valproic acid is administrated as an enteric-coated tablet with delayed absorption.
(§2) The study comprises 20 patients with TIA/minor stroke. Patients are investigated before and after oral treatment with 400 mg valproic acid once time daily at 11 pm for 2 weeks. Plasma PAI-1 levels and plasma concentrations of valproic acid is followed daily during the study period at the following time-points: 3 am, 6 am, 10 am, 16 pm, 22 pm PAI-1 levels are measured by commercially available ELISA-kits (Coaliza PA-1, Chromogenix AB) and the plasma concentration of valproic acid an metabolites thereof is analyzed according to clinical routine at the Sahlgrenska University laboratory, Gothenburg, Sweden.

PAI-1 [4] = conditions: cultured endothelial cells; no decrease of PAI-1 mRNA levels after VPA treatment; slight but significant; cited from earlier work
[5] = Intermediate endpoint study in patients with TIA/minor stroke: plasma concentration of valproic acid; format: in vivo, human; conditions: 400 mg enteric-coated tablet with delayed absorption, oral, once daily at 11 pm, clock time
Description: as §1, §2

PAI-1 [6] = assay: Proof-of-concept study in patients with a history of myocardial infarction: plasma PAI-1 before and after valproic acid; format: in vivo, human; conditions: midmorning, p=0.01; for reduction in circulating plasma PAI-1 levels: 16 male patients aged 50-80 with history of myocardial infarction, valproic acid 500 mg (Ergenyl Retard, Sanofi) twice daily 28 days on top of ordinary prescription
Description: (§3) The effects of VPA on PAI-1 were analysed in two different proof-of-concept studies in healthy subjects as well as in patients with manifest atherosclerotic disease. […] PAI-1 plasma levels were measured in the morning at the first day of the study as well as at the end of the treatment period with VPA (see example 2 for details on the PAI-1 analysis).
In the second study, 16 non-smoking white male patients, aged 50-80 years with a history of a myocardial infarction were included. On top of their ordinary prescription (beta-blocker, ACE-inhibitor, statin, aspirin) they were treated with valproic acid 500 mg (Ergenyl Retard, Sanofi), twice daily during 28 days.

PAI-1 [7] = assay: Proof-of-concept study in healthy subjects: plasma PAI-1 before and after valproic acid; format: in vivo, human; conditions: p<0.05
Description: as §3
In the first study, 10 healthy non-smoking white male subjects (with mean BMI of approximately 26), aged 50-70 years were included and treated with valproic acid 500 mg (Ergenyl Retard. Sanofi) twice daily during 14 days.

SMILES: CCCC(CCC)C(=O)O [valproic acid, 2-propylpentanoic acid]
- effects on plasma PAI-1 (PAI-1 [1]): did not detect any effects
- effects on plasma PAI-1 (PAI-1 [2]): did not detect any effects
- plasma PAI-1 levels lowered after the treatment (PAI-1 [3]): approximately 30%
- increase in PAI-1 production (PAI-1 [4]): 30%
- time of peak plasma concentration of valproic acid [5]: peak between 3 am and 6 am
- reduction in circulating plasma PAI-1 levels (PAI-1 [6]): 45%
- reduction in circulating plasma PAI-1 levels (PAI-1 [6]; listed as VPA): about 45%
- circulating plasma PAI-1 level after treatment (PAI-1 [6]; patients with history of myocardial infarction, 500 mg (Ergenyl Retard) twice daily 28 days, from 19.6 ng/ml before treatment): 11 ng/mL
- reduction in circulating plasma PAI-1 levels (PAI-1 [7]; 10 healthy non-smoking male subjects aged 50-70, valproic acid 500 mg (Ergenyl Retard, Sanofi) twice daily 14 days, mid-morning vs before treatment): more than 50%
- circulating plasma PAI-1 level after treatment (PAI-1 [7]; healthy male subjects, 500 mg (Ergenyl Retard) twice daily 14 days, mid-morning, from 22.2 ng/ml before treatment): 10.8 ng/mL
